Measured values taken from article PMC8921975 (Journal of the American Chemical Society, 2020).
“Also recorded” adds a separate entry of the source. Positions of bridges follow the written chain, without caps; N, C: chain ends. Non-standard residues stand in square brackets, D forms with d. No end group written: not given here. pGlu = O=C1CC[C@@H](C(=O)O)N1

What was measured:
TDP1 = TDP1 inhibitory activity of Axinella-derived peptides; assay type: biochemical; details: Figure S2
full-length TDP1 = full-length TDP1 (Homo sapiens, UniProt Q9NUW8); assay: Steady-state; assay type: biochemical
[1] = test system: N-terminal truncated form of TDP1 (Δ147TDP1); assay type: biochemical, human; details: N-terminally truncated TDP1 lacking regulatory domain (Δ1–147); FRET assay, PBS pH 7.4, 80 mM KCl, 1 mM TCEP
[2] = full-length TDP1 0.5 nM, 0.01–3 μM FRET substrate, recifin A 0, 0.2, 0.5, 1, 2 μM, PBS pH 7.4, 80 mM KCl, 1 mM TCEP, quadruplicate, 1 h
[3] = full-length TDP1, Figure S10 (Km and Vmax ratios)

Sequence of full-length TDP1 (Q9NUW8 whole entry, the tested form may be a part): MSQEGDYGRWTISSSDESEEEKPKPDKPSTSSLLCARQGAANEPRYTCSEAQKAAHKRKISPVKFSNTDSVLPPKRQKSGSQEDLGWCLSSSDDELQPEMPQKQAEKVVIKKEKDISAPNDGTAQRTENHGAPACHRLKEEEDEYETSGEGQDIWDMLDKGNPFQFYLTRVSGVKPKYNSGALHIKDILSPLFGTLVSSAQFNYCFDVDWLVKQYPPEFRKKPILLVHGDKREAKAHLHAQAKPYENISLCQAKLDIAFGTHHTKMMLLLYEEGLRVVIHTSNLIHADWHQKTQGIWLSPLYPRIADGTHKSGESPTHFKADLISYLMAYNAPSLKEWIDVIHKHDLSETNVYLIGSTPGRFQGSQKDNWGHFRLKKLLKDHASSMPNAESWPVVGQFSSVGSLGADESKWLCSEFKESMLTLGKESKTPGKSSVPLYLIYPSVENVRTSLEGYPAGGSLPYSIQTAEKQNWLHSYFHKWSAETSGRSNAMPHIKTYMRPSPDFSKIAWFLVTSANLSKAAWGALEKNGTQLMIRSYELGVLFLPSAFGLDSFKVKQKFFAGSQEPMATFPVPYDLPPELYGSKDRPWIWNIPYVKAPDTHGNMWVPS

Substance: [pGlu]EAFCYSDRFCQNYIGSIPDCCFGRGSYSFELQPPPWECYQC (disulfide 5-21, 11-39, 22-42) [recifin A]
- TDP1 inhibitory activity relative to the other Axinella peptides (TDP1): most active peptide
- Km for the substrate, effect of recifin A (in words) (full-length TDP1; [2]): increased the Km for the substrate
- Vmax, effect of recifin A (in words) (full-length TDP1; [2]): modest increase of the observed Vmax value; also recorded: increased the Vmax of the enzyme
- recifin A-dependent increase in the Km for the substrate (full-length TDP1; [3]): approximately 6 fold
- recifin A-dependent increase of observed Vmax (full-length TDP1; [3]): approximately 1.6 fold
- inhibition of Δ147TDP1 enzymatic activity (in words) [1]: not affecting the activity of a truncated catalytic domain of TDP1; also recorded: only a minimal effect; also recorded: inhibited full-length TDP1 but not N-terminally truncated TDP1 (Δ147TDP1); also recorded: does not affect the enzymatic activity of truncated TDP1; also recorded: unaffected by recifin A
